Data taken from the OligoGym collection.
Bases are written 5' to 3'; sugars and linkages follow in the same order, as letters with counts (s phosphorothioate, o phosphodiester; PS: all linkages phosphorothioate). The collection does not say whether C is 5-methylated. l = locked nucleic acid (LNA); d = 2'-deoxy (DNA)

Target: STC1
Assay: rat primary cortical neurons, FLIPR, 25 uM ASO

Sequence	calcium oscillation score
TTACCCAAATACACACATA (sugars l3 d12 l4, PS)	119 % of control
CTAATTATATATTTCCAC (sugars l4 d10 l4, PS)	119 % of control
AACATTCAAGCCTTTC (sugars l3 d9 l4, PS)	109 % of control
ATCAATATTATTCTTCT (sugars l5 d8 l4, PS)	122 % of control
ACCTGTAACTACTTCC (sugars l3 d11 l2, PS)	100 % of control
ATAGTTATTCCATTCC (sugars l4 d10 l2, PS)	105 % of control
TTACAAGTCATTTCCCT (sugars l4 d11 l2, PS)	91.8 % of control
TTACCCAAATACACACA (sugars l4 d9 l4, PS)	143 % of control
TTACCCAAATACACACAT (sugars l4 d10 l4, PS)	137 % of control
TATTATTCTTCTGTTTC (sugars l3 d10 l4, PS)	53.4 % of control
AGCTATTTATATTCCAC (sugars l2 d11 l4, PS)	122 % of control
TATTTATATTCCACAGT (sugars l3 d10 l4, PS)	107 % of control
TAGTTATTCCATTCCC (sugars l2 d12 l2, PS)	92.3 % of control
CTATTTATATTCCACAG (sugars l4 d11 l2, PS)	69.8 % of control
TAGTTATTCCATTCCCA (sugars l2 d13 l2, PS)	99.3 % of control
CAACATTCAAGCCTTT (sugars l5 d7 l4, PS)	89.1 % of control
ATTATTCTTCTGTTTCC (sugars l2 d11 l4, PS)	67.6 % of control
TCAATATTATTCTTCTG (sugars l2 d11 l4, PS)	35.4 % of control
ACATTCAAGCCTTTCC (sugars l4 d10 l2, PS)	81.6 % of control

Target: Tau
Assay: rat primary cortical neurons, FLIPR, 25 uM ASO

Sequence	calcium oscillation score
CTTTATTTCCAAATTCACTT (sugars lldllddddddddddlldll, PS)	117 % of control
CTGAAAGAGGGCAGCA (sugars l3 d10 l3, PS)	36.8 % of control
ATGGATGTTGCCTAATGAGC (sugars l3 d14 l3, PS)	0 % of control
ATTTCCAAATTCACTTTTAC (sugars l4 d11 l5, PS)	136 % of control
TAGTAAACACCATCTCT (sugars l3 d10 l4, PS)	71.4 % of control
ACACTGTCCTTTAAACA (sugars l4 d10 l3, PS)	68.1 % of control
GTCTTCCTGAAGGACACCTG (sugars l3 d14 l3, PS)	0 % of control
TTTTATTTCCTCCGCCA (sugars l2 d13 l2, PS)	18.5 % of control
CATCTTAATTCATTTAATTC (sugars l4 d12 l4, PS)	84.1 % of control
GATGCAGGAGTTGTAA (sugars l3 d10 l3, PS)	0 % of control
GAATAACATTAACCCT (sugars l4 d8 l4, PS)	74.5 % of control
TTTACACCACACTGTC (sugars l3 d10 l3, PS)	83.3 % of control
AATGTCCAAAAATCCCC (sugars l2 d11 l4, PS)	53 % of control
CCTTTTCATGTTAAATC (sugars l4 d9 l4, PS)	86.6 % of control
TCCAGCCATATTTCAACTCT (sugars l3 d14 l3, PS)	45.2 % of control
AAGCTTCCACATTTTAC (sugars l4 d10 l3, PS)	68.4 % of control
TTCTTAGAGGACTGCAACGC (sugars l3 d14 l3, PS)	23.9 % of control
CTTTTAATTAAATTTCTCCC (sugars l2 d15 l3, PS)	87.6 % of control
CCACCTCCTAGAACACA (sugars l2 d13 l2, PS)	50.9 % of control
TTAGCATCAGAGGTTT (sugars l3 d10 l3, PS)	23.3 % of control
TCTTGTTCTAACCCCACA (sugars l2 d14 l2, PS)	68.1 % of control
AGAGGCACAAGTCCT (sugars l3 d9 l3, PS)	74.3 % of control
TCCCAGCGTGATCTTCCATC (sugars lldllddddddddddlldll, PS)	106 % of control
GTCCCCCAAAATATCTC (sugars l3 d12 l2, PS)	72.1 % of control
CCTGGTTTATGATGGATGTT (sugars l3 d14 l3, PS)	0 % of control

Sequence	calcium oscillation score
CCAATTGTCACATTAA (sugars l4 d8 l4, PS)	63.1 % of control
GGGCCTGATCACAAACCCTG (sugars l3 d14 l3, PS)	42.7 % of control
CAACAGATATTCATTCC (sugars l4 d9 l4, PS)	60.6 % of control
TTTTTACCAATTTGCCT (sugars l2 d11 l4, PS)	55.5 % of control
AAAATCCTTAATTTAACCAC (sugars l4 d12 l4, PS)	64 % of control
CTTCAGGTCTGGCATGGGCA (sugars l3 d14 l3, PS)	0 % of control
AGCCTCTAGCCACATGGACC (sugars l3 d14 l3, PS)	16.1 % of control
GGTCTGGCATGGGC (sugars l3 d8 l3, PS)	0 % of control
ATCCAAGTCAATGCCTGGCT (sugars l3 d14 l3, PS)	34.2 % of control
AGAGAGACCACATTATCATC (sugars l3 d14 l3, PS)	68.5 % of control
ACCCAATCTTCGACTG (sugars l3 d10 l3, PS)	43.4 % of control
AATTTACACCCAAACCTAA (sugars l4 d11 l4, PS)	106 % of control
GTAACCAACTTTCATC (sugars l3 d9 l4, PS)	74.8 % of control
AGGTATCCAGCCATATTTCA (sugars l3 d14 l3, PS)	20.2 % of control
CCCACTTTTAATTAAATTTC (sugars l3 d14 l3, PS)	76.8 % of control
CTAAACCATGATCTTA (sugars l3 d10 l3, PS)	21.1 % of control
CTTTATTTCCAAATTCACTT (sugars l4 d12 l4, PS)	0 % of control
AAAATATCCTTACCATCC (sugars l4 d10 l4, PS)	70.2 % of control
ACTTTATTTCCAAATTCACT (sugars l5 d10 l5, PS)	98 % of control
CTTACTGATCATAATCC (sugars l4 d9 l4, PS)	85.1 % of control
CTTGTGATGCAGGA (sugars l3 d8 l3, PS)	70.5 % of control
CAACTCTTTGAACACCC (sugars l4 d11 l2, PS)	76.8 % of control
CCCCACTTTTAATTAAA (sugars l4 d10 l3, PS)	99.7 % of control
AGGCAAAGGTTTATCTTCCA (sugars l3 d14 l3, PS)	33 % of control
CACCATCCAAGTCAATGCCT (sugars l3 d14 l3, PS)	24.2 % of control

Target: not listed separately
Assay: rat primary cortical neurons, FLIPR, 25 uM ASO

Sequence	calcium oscillation score
TACCATACAATAACTTTAAC (sugars l3 d14 l3, PS)	76.5 % of control
CAAACTTATATCTTTCAAAC (sugars l4 d12 l4, PS)	78.3 % of control
CAAATCATCCATCTATAAAC (sugars l4 d12 l4, PS)	88.8 % of control
CTAAATCCTTAATATCAAAC (sugars l4 d12 l4, PS)	79.3 % of control
CAACCAACAATACTTTAAAC (sugars l4 d12 l4, PS)	85.6 % of control
AAATCTATAATAACCACCAC (sugars l3 d14 l3, PS)	80.2 % of control
CACAATCTAACTATTAAC (sugars l3 d12 l3, PS)	76.5 % of control
TAACTAACTTAACTCAAC (sugars l3 d12 l3, PS)	74.7 % of control
CACAACTATTAAATACCAAC (sugars l3 d14 l3, PS)	83.8 % of control
CTAATATTATAACCATCAAC (sugars l3 d14 l3, PS)	82 % of control
TCCACTAACCAATATAAC (sugars l3 d12 l3, PS)	76.5 % of control
CCAAATCTTATAATAACTAC (sugars ldlllddddddddddlldll, PS)	80.2 % of control
TACTCAAATATAACACCAAC (sugars l3 d14 l3, PS)	85.6 % of control
